Experimental data reported in ChEMBL document CHEMBL3044534, “Antitumor and antileishmanial evaluation of novel heterocycles derived from quinazoline scaffold: a molecular modeling approach” (2013).

Experiments:
Format in all cases: functional
Leishmania donovani [1] = assay: Antileishmanial activity against axenic amastigotes of Leishmania donovani assessed as growth inhibition
NCI-H460 = assay: Growth inhibition of Homo sapiens (human) NCI-H460 cells after 48 hr by SRB assay; conditions: NCI-H460, 48 h
MCF7 = assay: Growth inhibition of Homo sapiens (human) MCF7 cells after 48 hr by SRB assay; conditions: MCF7, 48 h
SF-268 = assay: Growth inhibition of Homo sapiens (human) SF268 cells after 48 hr by SRB assay; conditions: SF-268, 48 h
Leishmania donovani [2] = assay: Antileishmanial activity against axenic amastigotes of Leishmania donovani assessed as growth inhibition at 50 uM; conditions: read-out: GI
Leishmania donovani [3] = assay: Antileishmanial activity against axenic amastigotes of Leishmania donovani assessed as growth inhibition at 1 uM; conditions: read-out: GI

| SMILES | GI50 (NCI-H460) [µM] | GI50 (MCF7) [µM] | GI50 (Leishmania donovani [1]) [µM] | GI50 (SF-268) [µM] | inhibition of growth at 50 µM (Leishmania donovani [2]) [%] | inhibition of growth at 1 µM (Leishmania donovani [3]) [%] |
| --- | --- | --- | --- | --- | --- | --- |
| Cc1nc2ccccc2c(=O)n1NCC(=O)NN | 14.5 | 11.8 | 22 | 16.7 | 58 | – |
| Cc1nc2ccccc2c(=O)n1NC(=O)c1cc2ccccc2o1 | 12.1 | 10.9 | 14 | 22.3 | 28 | – |
| Cc1nc2ccccc2c(=O)n1NC(=O)C1Nc2ccccc2C1=O (centres undefined) | 14.1 | 11.9 | 13 | 20.3 | 92 | – |
| Cc1nc2ccccc2c(=O)n1NC1=CSC(=C(C#N)C#N)N1c1ccccc1 | 32.6 | 40.6 | 18 | 60.4 | 44 | – |
| CC1=CC(C)N(c2ccccc2)C(=S)N1n1c(C)nc2ccccc2c1=O (centres undefined) | 0.2 | 0.7 | – | 0.03 | 48 | – |
| Cc1nc2ccccc2c(=O)n1NCC(=O)NNc1ccccc1 | 12.9 | 22.6 | 28 | 24.8 | 22 | – |
| Cc1nc2ccccc2c(=O)n1-n1c(C)cc(=O)n(-c2ccccc2)c1=S | 43.6 | 22.9 | 12 | 36.8 | 66 | – |
| COc1cccc2c1C(=O)c1c(O)c3c(c(O)c1C2=O)C[C@@](O)(C(=O)CO)C[C@@H]3O[C@H]1C[C@H](N)[C@H](O)[C@H](C)O1 [DOXORUBICIN] | 0.09 | 0.04 | – | 0.09 | – | – |
| COc1ccc(/C=C(\Cl)C(=O)Nn2c(C)nc3ccccc3c2=O)cc1 | 0.6 | 0.9 | 28 | 0.8 | 84 | – |
| Cc1nc2ccccc2c(=O)n1NC(=S)Nc1ccccc1 | 78.6 | 64.9 | 12 | 56.8 | 98 | – |
| C[C@@H]1[C@H](O)[C@@H](C)/C=C/C=C/C=C/C=C/C=C/C=C/C=C/[C@H](O[C@@H]2O[C@H](C)[C@@H](O)[C@H](N)[C@@H]2O)C[C@@H]2O[C@](O)(C[C@@H](O)C[C@@H](O)[C@H](O)CC[C@@H](O)C[C@@H](O)CC(=O)O[C@H]1C)C[C@H](O)[C@H]2C(=O)O [AMPHOTERICIN B] | – | – | – | – | – | 98 |
| Cc1nc2ccccc2c(=O)n1NC(=O)/C(Cl)=C/c1ccccc1 | 0.02 | 0.03 | 26 | 0.05 | 80 | – |
| Cc1nc2ccccc2c(=O)n1Nc1cc2ccccc2oc1=O | 17.3 | 32 | – | 22.3 | 70 | – |
| Cc1nc2ccccc2c(=O)n1NC(=O)/C(Cl)=C/c1ccc(Cl)cc1 | 38.9 | 70.6 | 18 | 50.8 | 50 | – |

Second part, led by results:

| GI50 (NCI-H460) [µM] | GI50 (MCF7) [µM] | SMILES | GI50 (Leishmania donovani [1]) [µM] | GI50 (SF-268) [µM] | inhibition of growth at 50 µM (Leishmania donovani [2]) [%] | inhibition of growth at 1 µM (Leishmania donovani [3]) [%] |
| --- | --- | --- | --- | --- | --- | --- |
| 0.9 | 13.1 | CCOC(=O)c1c(N)cc(O)n1-n1c(C)nc2ccccc2c1=O | 18 | 11.5 | 60 | – |
| 23.2 | 50.1 | Cc1nc2ccccc2c(=O)n1NC(=O)CCl | – | 18.4 | 60 | – |
| 0.2 | 0.01 | Cc1nc2ccccc2c(=O)n1Nc1csc(N)n1 | 22 | 0.4 | 72 | – |
| 28 | 36 | Cc1nc2ccccc2c(=O)n1/N=c1\scc(N)n1-c1ccccc1 | 10 | 22.5 | 96 | – |
| 22.6 | 20.9 | CCOC(=O)CNn1c(C)nc2ccccc2c1=O | 10 | 26.8 | 44 | – |
| 22 | 20 | Cc1nc2ccccc2c(=O)n1NCc1nc2ccccc2[nH]1 | – | 31.5 | 85 | – |
| 30.6 | 22 | Cc1nc2ccccc2c(=O)n1/N=C1\SCC(=O)N1c1ccccc1 | 12 | 38.4 | 44 | – |
| 0.1 | 0.4 | CCOC(=O)c1c(N)cc(N)n1-n1c(C)nc2ccccc2c1=O | – | 0.9 | 40 | – |
